Measurements as given in patent US20240293416A1, “TREATMENT OF LIVER DISORDERS WITH A THR-ß AGONIST” (Terns Pharmaceuticals, Inc., priority 2021, published 2024).

How the values were obtained:
[1] = DIO-GAN NASH mice: trough plasma compound levels by LC-MS/MS; type: in vivo, C57BL/6JRj mice; conditions: plasma 21-24 hours post final dose
Procedure: Terminal plasma samples were harvested by cardiac puncture approximately 21-24 hours after the last administration of compound(s). Terminal plasma samples were analyzed by high resolution LC-MS/MS using a Triple Quad 6500+ instrument. 20 μL of plasma sample was mixed with 200 μL of internal standard solution (100 ng/ml Labetalol+100 ng/ml Tolbutamide in acetonitrile), vortexed, and centrifuged at 4,000 rpm for 15 min at 4° C. […] The internal standard (retention time: 0.76 min), was used for quantification of the glucuronide metabolite of Compound 2 (retention time: 0.77 min). Calibration curves (1-3000 ng/mL) were generated in a matrix of mouse plasma (pooled vehicle control) for each analyte.
Terminal plasma samples collected by cardiac puncture 21-24 hours post final treatment dose (i.e., trough) were analyzed by LC-MS/MS. Values represent mean and standard deviation (SD). ND, not determined.

BCRP = molecular target: T1, BCRP (Homo sapiens, UniProt Q9UNQ0); experiment: In vitro transporter inhibition, BCRP; type: in vitro ADME
T1 sequence (Q9UNQ0 1-655): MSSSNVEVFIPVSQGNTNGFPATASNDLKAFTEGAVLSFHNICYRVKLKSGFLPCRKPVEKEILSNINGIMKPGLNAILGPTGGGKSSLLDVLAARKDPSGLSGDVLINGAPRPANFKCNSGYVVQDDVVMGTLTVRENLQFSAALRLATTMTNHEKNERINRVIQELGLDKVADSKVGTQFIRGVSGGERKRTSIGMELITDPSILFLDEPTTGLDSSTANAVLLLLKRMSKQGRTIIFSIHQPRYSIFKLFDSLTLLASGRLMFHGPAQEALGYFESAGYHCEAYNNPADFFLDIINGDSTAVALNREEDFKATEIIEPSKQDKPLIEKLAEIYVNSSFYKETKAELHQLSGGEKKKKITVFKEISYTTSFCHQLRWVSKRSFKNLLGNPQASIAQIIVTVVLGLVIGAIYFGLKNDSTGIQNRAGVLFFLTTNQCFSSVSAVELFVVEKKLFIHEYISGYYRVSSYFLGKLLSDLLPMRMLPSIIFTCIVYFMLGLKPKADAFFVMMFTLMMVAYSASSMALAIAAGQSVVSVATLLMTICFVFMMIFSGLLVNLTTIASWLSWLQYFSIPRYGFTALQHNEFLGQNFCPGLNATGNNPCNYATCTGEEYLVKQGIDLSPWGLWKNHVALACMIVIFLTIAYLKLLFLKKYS

[2] = system: biopsy-confirmed DIO-NASH mice; experiment: DIO-GAN NASH mice: liver transcriptomics by RNAseq; type: in vivo, C57BL/6JRj mice; conditions: RNAseq at termination
Description: C57BL/6JRj male mice (n=138) were fed the Gubra Amylin NASH (GAN) diet (40% fat, 22% fructose, 2% cholesterol [D09100310, Research Diets]) or lean chow diet for 35 weeks before treatment start. Prior to treatment all animals underwent liver biopsy for histological confirmation (steatosis score ≥2 and fibrosis stage ≥1) and stratification using the nonalcoholic fatty liver disease (NAFLD) activity scoring (NAS) and fibrosis staging system. The diet-induced obese mice on GAN diet (DIO-GAN) were randomized to 8 treatment groups (Table 16) based on percent-area of picrosirius red (PSR) staining. […] Vehicle-dosed lean chow-fed controls served as healthy controls (n=10). Mice were maintained on their respective diets (GAN or lean chow) for the duration of the study. Within-subject comparisons (pre-vs. post-treatment) were performed for liver biopsy histopathological scores. Terminal quantitative endpoints included plasma/liver biochemistry, liver histomorphometry, and liver transcriptomic analysis by RNAseq.
Tissue was collected and snap-frozen in liquid nitrogen and stored at −80 C until processing. RNA was isolated using a NucleoSpin kit ([…]-NAGEL). […]

[3] = pH effect on PK performance in beagle dogs; type: in vivo; conditions: 10 mg capsule, 5% SLS; pentagastrin vs famotidine pre-treatment, n=3 per group
Description: To determine the pH effect on PK performance, beagle dogs were divided into two groups (n=3 per group).

[4] = Multiple ascending doses in healthy subjects with elevated LDL-c: safety; type: in vivo, human; conditions: 1, 3, 6 or 10 mg once daily for 14 days
Description: Objectives: Assess the overall safety and tolerability of multiple ascending doses of Compound 1 in healthy subjects with elevated LDL-c.
Primary Endpoints: Treatment-emergent adverse events (TEAEs), vital signs, clinical laboratory parameters, and electrocardiogram (ECG) monitoring.

[5] = Pharmacokinetics of 50 mg capsules with or without SLS in beagle dogs; type: in vivo; conditions: 50 mg capsule with vs without 5 wt % SLS
mouse NASH model = experiment: High fat diet + CCl4 mouse NASH model; type: in vivo, C57BL/6J mice
Procedure: C57BL/6J mice were fed a high fat diet for 10 weeks to induce obesity (>38 g BW). Obese mice were injected intraperitoneally (i.p.) twice a week for four weeks with 0.5 μl/g 25% CCl4 (formulated in olive oil) to induce fibrosis, and one group of normal BW mice were injected i.p. twice a week for four weeks with olive oil to serve as a healthy control. […] On CCl4 dosing days, CCl4 was administered at 4 hours post compound or vehicle dosing. On day 27, all animals were fasted for about 16 hours before terminal euthanasia. On day 28, all animals were sacrificed and various biological parameters were analyzed. Total body, liver, heart and brain weight were measured and changes in liver and heart weight were normalized using brain weight.
Liver samples were collected for whole transcriptome analysis by RNA sequencing (RNAseq). RNAseq library (n=5 per group) preparation and sequencing was performed using Illumina standard protocols. Alignment of sequencing reads was performed using STAR aligner software and read counts were estimated using RSEM. Differentially expressed genes (compared to vehicle-treated NASH control mice) were determined using EdgeR software. Gene ontology analysis was performed using Advaita software with fold-change and adjusted p-value cutoffs of >1.5 and <0.05, respectively. Gene ontologies were derived from the Gene Ontology Consortium database (2019 Apr. 26) (Ashburner et al., Gene ontology: Tool for the unification of biology. Nature Genetics 25(1): 25-9 (2000); Gene Ontology Consortium, Creating the Gene Ontology Resource: Design and Implementation. Genome Research 11: 1425-1433 (2001)).

| Compound | Mean trough analyte concentration (SD) ([1]; treatment group Combo-high, n = 14) | Mean trough analyte concentration (SD) ([1]; treatment group Combo-med, n = 16) | Mean trough analyte concentration (SD) ([1]; treatment group Compound 2 (10 mg/kg), n = 16) | IC50 (BCRP) [µM] | liver expression of Col1a1, Acta2, Lgals3 and CD146 relative to DIO-GAN vehicle control [2] | liver expression of Scd1 [2] | pH effect on plasma concentrations [3] | ALT increase to ≥2×ULN [4] | free T4 [4] | safety and tolerability [4] | severity of AEs [4] | increase of exposure (Cmax, AUC) by formulation with 5 wt % SLS [5] | liver fibrosis (histology) (mouse NASH model; 3 and 10 mpk, 28 days) | liver inflammation (histology) (mouse NASH model; 28 days) | liver steatosis (histology) (mouse NASH model; all doses tested, 28 days) | serum total cholesterol, triglycerides and ALT (mouse NASH model; all doses tested, 28 days) | expression of genes associated with collagen extracellular matrix and hepatic stellate cell activation (mouse NASH model; liver RNAseq vs NASH control mice) | liver/brain weight (mouse NASH model; orally once a day for 28 days) | total body weight or heart/brain weight (mouse NASH model; orally once a day for 28 days) | steady state plasma AUC0-∞ sufficient to ensure efficacy (mouse NASH model; preclinical animal models) |
| --- | --- | --- | --- | --- | --- | --- | --- | --- | --- | --- | --- | --- | --- | --- | --- | --- | --- | --- | --- | --- |
| Cn1cc(C(=O)O)c2ccc(C3CCC(OCc4c(-c5c(Cl)cccc5Cl)noc4C4CC4)CC3)cc21 (centres unmarked) [Compound 2] | 3.3 (1.8) ng/mL | 5.8 (3.5) ng/mL | 7.4 (3.8) ng/mL | 4.39 | significantly reduced expression | reduced |  |  |  |  |  |  |  |  |  |  |  |  |  |  |
| N#Cc1nn(-c2cc(Cl)c(Oc3n[nH]c(=O)c4ccccc34)c(Cl)c2)c(=O)[nH]c1=O [Compound 1, 2-(3,5-dichloro-4-((4-oxo-3,4-dihydrophthalazin-1-yl)oxy)phenyl)-3,5-dioxo-2,3,4,5-tetrahydro-1,2,4-triazine-6-nitrile] |  |  |  |  |  |  | Minimal pH effect | No subject | Dose-dependent declines | generally safe and well-tolerated | mild to moderate with no apparent dose relationship | more than 70% | significantly reduced liver fibrosis | trend in inflammation reduction | significantly reduced steatosis at all doses tested | significantly reduced | significant effect | significantly reduced | no effect | approximately 3,320 ng*hg/mL |
